From patent US9609810B2, “Methods for modulating photosynthetic activity” (priority 2012, dated 2017)

Tests used:
Type in all cases: in vivo
corn (Zea Maize) = assay: Water used to irrigate corn grown under field conditions; details: end of growing season; compared to non-treated control corn
From the text: In the following example, a treatment group of corn (Zea Maize) is sprayed once each evening with an aqueous “treatment solution” of 10 ppm sodium hydrosulfide (NaHS) in distilled water, buffered with phosphate, to a pH of 7.4. The control group of plants is sprayed once each evening with an equivalent amount of “control solution” consisting of distilled water buffered with phosphate to a pH of 7.4. An experimental plot may be setup with 8 repetitions to obtain statistically independent results. The treatment (aqueous NaHS) and control (water alone) plots may be set up following a randomized scheme. […]
Water Use Measurements. […] This allows the measurement of water used in every single plot such that evaluation of water use differences between the water-alone control crops and NaHS treated crops can be monitored. The system is installed in such a way that every plant may receive a given amount of water determined by using constant rate water applicators. […] Soil water content (SWC) is measured continuously, using a Time Domain Reflectometer sensor installed in each of the twenty-four rows. […] The sensors are monitored by a datalogger (model 23X, Campbell Scientific Inc., Logan, Utah). The probes may be 30 cm long, and can be buried vertically, such that average volumetric water content of the top 30 cm of the soil is measured. […] The soil water content may be measured every 60 seconds. […]

[1] = test system: dwarf sunflower (Helianthus annuus L.) plants; assay: Stomata conductance and transpiration in greenhouse-grown plants; details: foliar application of aqueous 10 ppm NaHS, pH 7.4, once per evening for one week; compared to control plants
From the text: In the following example, a treatment group of dwarf sunflower (Helianthus annuus L.) plants is sprayed once each evening with an aqueous “treatment solution” of 10 ppm sodium hydrosulfide (NaHS) in distilled water, buffered with phosphate, to a pH of 7.4. The control group of plants is sprayed once each evening with an equivalent amount of “control solution” consisting of distilled water buffered with phosphate to a pH of 7.4. The treatment and control groups each include seven plants. The dwarf sunflower plants are grown from seed in 20-cm diameter plastic pots. Each pot contains one plant growing in a peat, sand mixture. […]
Stomata conductance is measured with a steady state porometer (LiCor model LI-1600, LiCor Inc., Lincoln, Nebr.). Measurements are made on the abaxial leaf surfaces where the majority of stomata are located and are recorded after the treated group and the control group are sprayed once per evening for one week.
The transpiration rate is determined by calculating the vapor pressure at the evaporating surface (leaf) and the air vapor pressure. The saturated vapor pressure of the leaf is calculated by measuring leaf temperature. Leaf temperature is measured using an external thermocouple as well as the LICor porometer. […] Relative humidity is determined using a sling psychrometer. […] Averages for 7 plants of each group are calculated and plotted.

[2] = test system: potted pepper (Capsicum sp.) plants; assay: Transpiration reduction in pepper plants grown in a growth chamber; details: compared to control plants
Experimental: In the following example, a treatment group of potted pepper (Capsicum sp.) plants is sprayed once each evening with an aqueous “treatment solution” of 10 ppm sodium hydrosulfide (NaHS) in distilled water, buffered with phosphate, to a pH of 7.4. The control group of plants is sprayed once each evening with an equivalent amount of “control solution” consisting of distilled water buffered with phosphate to a pH of 7.4. Potted pepper plants are grown in a temperature controlled growth-chamber under metal halide lamps. Average temperature in the growth chamber is about 20° C., and relative humidity is about 60%. Pots contain a greenhouse mix peat soil enriched with slow release fertilizer. Environmental conditions (light, temperature, and relative humidity) inside the growth chamber are monitored every 30 minutes during the experiment using standard environmental sensors such as a pyranometer, thermocouple psychrometer, relative humidity sensor and a datalogger. […]
The treatment solution of aqueous sodium hydrosulfide (NaHS) is sprayed once each night onto the top surface and bottom surface of leaves as described in Example 1 using a simple hand sprayer. The control group receives the same quantity of water alone which is sprayed each night onto the leaves in the same fashion as the treated group. […]

S [NaHS, sodium hydrosulfide]
biomass production (total dry matter) (corn (Zea Maize)): higher biomass production
stomata conductance [1]: decrease in stomata conductance
transpiration ([2]; optimally watered plants sprayed each night with 10 ppm NaHS): reduction in transpiration
cumulative water use ([2]; water stress conditions, sprayed each night with 10 ppm NaHS): cumulative water use in control plants is consistently higher
